Experimental data taken from US5739171A, “Method for promoting animal growth” (priority 1993, dated 1998).
Read-outs that look alike come from different tables or passages of the source.

What was measured:
[1] = acute toxicity by oral administration (LD50), rats; details: rat, in vivo
Description: Safety of the effective components of the composition of the present invention will be given hereunder. For example, acute toxicity by oral administration of sodium o-nitrophenol, sodium p-nitrophenol and sodium 5-nitroguaiacol is as follows:
Acute toxicity by oral administration is low. In addition, it has been also confirmed that those compounds are without problem in terms of toxicity by chronic toxicity test, teratogenic test and carcinogenic test. Further, as mentioned above, those compounds have been used as plant growth regulators and hair growth promoters throughout the world. In the past, they were used as injections but there was no example of adverse affection on the animals who took the plants to which they were applied, on the persons who were injected therewith and on the persons using the hair growth promoters containing them. Thus, their safety in humans has been practically confirmed. As mentioned above, o-nitrophenol, p-nitrophenol, 5-nitroguaiacol and salts thereof which are active ingredient(s) of the methods for growth promoting of the present invention have high safety.

[2] = test system: Tilapia fry; assay type: in vivo; details: feed with 10 ppm of a single salt; for Body Weight Increase per 1 Tilapia after 4 Weeks: control 3.78; for Body Weight Increase per 1 Tilapia after 8 Weeks: control 10.10
Method: Tilapia fry with average body weight 2 g were used. Commercial feed for tilapia was given twice a day (morning and evening) in an amount of 5 to 8% of the body weight. The control group was given the commercial feed only, while the treated groups were given the commercial feed with the addition of the test compound(s) o-nitrophenol, p-nitrophenol and/or 5-nitroguaiacol, in the amount(s) shown in Table 3. Body weights were measured after 4 and 8 weeks.

[3] = female rats, read-out: LD50 for rats (female)
[4] = male rats, read-out: LD50 for rats (male)

Row | Compound | LD50 [1, 3] [mg/kg] | LD50 [1, 4] [mg/kg] | Body Weight Increase per 1 Tilapia after 4 Weeks [2] [g] | Body Weight Increase per 1 Tilapia after 4 Weeks, relative to control (100) [2] | Body Weight Increase per 1 Tilapia after 8 Weeks [2] [g] | Body Weight Increase per 1 Tilapia after 8 Weeks, relative to control (100) [2]
1 | COc1ccc([N+](=O)[O-])cc1O [Sodium 5-nitroguaiacol, sodium 5-nitroguaiacol] | 1270 | 3100 | 4.08 | 108 | 11.09 | 110
2 | O=[N+]([O-])c1ccccc1O.[Na] [Sodium o-nitrophenol, sodium o-nitrophenol] | 1460 | 2050 | 3.97 | 105 | 10.71 | 106
3 | O=[N+]([O-])c1ccc(O)cc1.[Na] [Sodium p-nitrophenol, sodium p-nitrophenol] | 482 | 1250 | 4.04 | 107 | 10.61 | 105
